In patent US9746463B2 (THE TRUSTEES OF COLUMBIA UNIVERSITY IN THE CITY OF NEW YORK, priority 2006, dated 2017):
Blank lines part the entries; values can stand above or below the molecule they belong to. Bridge positions count the residues as written; N and C are the ends. Square brackets hold non-standard residues; d marks the D form. Primed or numbered codes have the meaning given here. Ends that are not written are not given here. Gla′ = carboxylated glutamic acid

What was measured:
[1] = tested on: Adiponectin expression in WT adipocytes; assay: Adiponectin expression in adipocytes treated with osteocalcin (real time PCR); assay type: cell-based, mouse
Description: (§1) FIG. 7A-O. Esp−/− Mice Are a Model of Increased Osteocalcin Bioactivity. (FIGS. 7A-G) Comparison between 6-week-old WT, Esp−/, Ocn+/−, and Esp−/−; Ocn+/− mice. (FIG. 7A) Blood glucose levels. (FIG. 7B) Serum insulin levels. (FIG. 7C) Serum adiponectin levels. (FIG. 7D) GTT. (FIG. 7E) ITT. (FIG. 7F) GSIS test. (FIG. 7G) Quantification of the number of Ki67-immunoreactive cells in pancreatic islets. […] (FIG. 7K) Expression of Adiponectin in WT adipocytes cultured in presence of vehicle or of 1 ng/ml of commercially available carboxylated osteocalcin (Immunotopics) or bacterially produced uncarboxylated osteocalcin. (FIG. 7L) Expression of Insulin and Cyclin D1 in WT islets cultured in presence of 0.3 ng/ml of bacterially produced uncarboxylated osteocalcin or vehicle. (FIG. 7M) Metabolic parameters and total serum osteocalcin levels in control and obese patients. (FIG. 7N-O) Quantification of carboxylated osteocalcin (HA-bound osteocalcin) in control and obese patients. In (FIGS. 7A)-(C) and (FIGS. G)-(L): *p<0.05 versus WT (Student's t test); in (FIG. D)-(F), °p<0.05 versus WT and *p % 0.001 versus WT (ANOVA followed by post hoc analysis).
FIG. 15. […] Wt adipocytes were treated for 4 hours with recombinant full-length osteocalcin (1-46) or a truncated form (1-36) or vehicle. Adiponectin expression was then quantified by real time PCR.
Primary adipocytes were isolated from epididymal fat pads by collagenase digestion. Briefly, minced adipose tissue was digested by 1 mg/ml collagenase P in KRP Buffer (20 mM HEPES, 120 mM NaCl, 6 mM KCl, 1.2 mM MgSO4, 1 mM CaCl2, 0.6 mM Na2HPO4, 0.4 mM NaH2PO4, 2.5 mM D-glucose, 2% BSA, pH 7.4) for 1 h at 37° C. The isolated cells were washed twice with KRP Buffer before being cultured in αMEM/1% FBS at 37° C. in 5% CO2.
Gene expression analyses. All gene expression analyses were performed using real time PCR. DNAse I-treated total RNA was converted to cDNA with the SuperScript III kit (Invitrogen). Real-time PCR were performed using the Taq SYBR Green Supermix with ROX (Biorad) on an MX3000 instrument (Stratagene); beta-actin amplification was used as an internal reference for each sample. All primers were from SuperArray.
A fragment of uncarboxylated osteocalcin is biologically active. Experiments were performed to test whether truncated osteocalcin was as effective as full-length uncarboxylated osteocalcin in stimulating adiponectin secretion from mouse adipocytes in vitro. Wild type adipocytes were treated for 4 hours with recombinant full-length osteocalcin (1-46) or a truncated form (1-36) (having a deletion of the first ten amino acids from the C-terminal end) or vehicle. Adiponectin expression was then quantified by real time PCR. […]

[2] = hydroxyapatite competition studies; cited from earlier work
[3] = tested on: wild type osteoblasts; assay: Isoproterenol on wild type osteoblasts: mRNA levels by quantitative PCR; assay type: cell-based
Text: The sympathetic nervous system positively regulates OST-PTP expression. It was discovered that sympathetic nervous system (SNS) activity positively regulates Esp expression in osteoblasts. […] Thus, decreasing sympathetic activity should lead to a decrease in Esp expression and thereby to an increase in the undercarboxylated, active form of osteocalcin.

[4] = tested on: gamma-carboxylation of osteocalcin in osteoblasts; assay: Osteocalcin/hydroxyapatite (HA) binding assay of medium from warfarin-treated osteoblasts; assay type: cell-based, mouse
Description: as §1
Cell culture experiments. […]
Osteocalcin/hydroxyapatite (HA) binding assay. […] Osteocalcin present in eluates and initial samples was measured by IRMA. […]

[5] = tested on: Adiponectin expression in WT adipocytes; assay: Co-culture of adipocytes with warfarin-treated osteoblasts: adiponectin expression; assay type: cell-based, mouse; conditions: warfarin-treated vs vehicle-treated osteoblasts (FIG. 7J)
Description: as §1
Co-culture of osteoblasts and adipocytes to study regulation of adiponectin expression/secretion by osteocalcin. A co-culture assay was developed between osteoblasts and adipocytes to analyze modifications in adiponectin expression. […]

Molecule: carboxylated osteocalcin: commercially available carboxylated osteocalcin (Immunotopics) (YLYQWLGAPVPYPDPL[Gla′]PRR[Gla′]VC[Gla′]LNPDCDELADHIGFQEAYRRFYGPV; disulfide 23-29; ends not checked; also: carboxylated (Gla), sites not given here; UniProt P02818 52-100, looked up) [reference compound]
induction of adiponectin expression ([1]; WT adipocytes, 1 ng/ml (FIG. 7K)): failed to induce adiponectin expression

Molecule: Decarboxylated osteocalcin: thermally decarboxylated osteocalcin of the literature (YLYQWLGAPVPYPDPLEPRREVCELNPDCDELADHIGFQEAYRRFYGPV; not fully specified; ends and bridges not checked; UniProt P02818 52-100, looked up)
competition with ^125I-labeled osteocalcin bound to hydroxyapatite [2]: fail to compete

Molecule: 1-36 fragment of uncarboxylated osteocalcin: Recombinant truncated mouse osteocalcin (1-36), ten amino acids deleted from the C-terminal end (YLGASVPSPDPLEPTREQCELNPACDELSDQYGLKT; not fully specified; ends and bridges not checked; UniProt P86546 50-85, looked up, fragment)
increase of Adiponectin expression ([1]; wild type adipocytes treated for 4 hours, real time PCR, vs vehicle): ~1.8 fold
potency in inducing adiponectin expression compared with native osteocalcin ([1]; wt adipocytes, 4 hours, in vitro): as potent as native osteocalcin

expression of gamma-carboxylase (ggcx) [3]: did not increase expression
Molecule: CC(C)NCC(O)c1ccc(O)c(O)c1 (stereo not drawn) [isoproterenol]
expression of osteocalcin [3]: did not increase expression
expression of vkor [3]: did not increase expression
increase of Esp expression ([3]; at 8 hours): remains steady
increase of Esp expression ([3]; by 4 hours): about 80%

percentage of osteocalcin bound to HA ([4]; conditioned medium of warfarin-treated osteoblasts vs vehicle (FIG. 7I)): marked decrease
levels of undercarboxylated osteocalcin produced by osteoblasts ([4]; warfarin-treated vs vehicle-treated osteoblasts (FIG. 7I)): elevated levels
Molecule: CC(=O)CC(c1ccccc1)c1c(O)c2ccccc2oc1=O (stereo not drawn) [warfarin]
induction of adiponectin expression in co-cultured adipocytes [5]: significantly higher extent
